# Values quoted from earlier work as cited in patent US10548876B2 (Race Oncology Ltd., priority 2013, dated 2020).
# Where a name gives a salt, the structure may show the parent alone. Read-outs that look alike come from different tables or passages of the source.
# Key:
# [1] = target: glycogen synthase kinase-3β (GSK-3β) (Homo sapiens, UniProt P49841)
# double-stranded DNA = settings: under physiological conditions, threading mode
# [2] = system: colon 26, Lewis lung, Ridgway osteosarcoma, B16, Lieberman plasma cell, P388 or L1210 cancer cells
# metastatic breast cancer = settings: patients with metastatic breast cancer
# human colon cancer = human colon cancer tested in vitro or in vivo
# [3] = system: refractory malignant melanoma
# [4] = not given; remark: listed apart in the source
# [5] = over 96 hr
# [6] = triphasic elimination
# [7] = one report; interpreted as tissue sequestration with depot effect
# [8] = 72-hr infusion
# [9] = 5 day schedule of 60 min infusions
# [10] = not given; remark: listed apart in the source
# [11] = not given; remark: listed apart in the source
# [12] = not given; remark: listed apart in the source
# [13] = physiologic pH
# [14] = system: hepatic microsomal enzymes; settings: specific metabolites not identified
# [15] = in vivo
# P-glycoprotein = P-glycoprotein (Homo sapiens, UniProt P08183)
# [16] = local injection; physically decomposes bisantrene
# telomerase = settings: by interfering with substrate recognition
# [17] = system: telomerase-expressing cells and ALT-positive cell lines
# [18] = patients, 90 min infusion at 260 mg/m^2
# Sequence of P-glycoprotein (P08183 whole entry): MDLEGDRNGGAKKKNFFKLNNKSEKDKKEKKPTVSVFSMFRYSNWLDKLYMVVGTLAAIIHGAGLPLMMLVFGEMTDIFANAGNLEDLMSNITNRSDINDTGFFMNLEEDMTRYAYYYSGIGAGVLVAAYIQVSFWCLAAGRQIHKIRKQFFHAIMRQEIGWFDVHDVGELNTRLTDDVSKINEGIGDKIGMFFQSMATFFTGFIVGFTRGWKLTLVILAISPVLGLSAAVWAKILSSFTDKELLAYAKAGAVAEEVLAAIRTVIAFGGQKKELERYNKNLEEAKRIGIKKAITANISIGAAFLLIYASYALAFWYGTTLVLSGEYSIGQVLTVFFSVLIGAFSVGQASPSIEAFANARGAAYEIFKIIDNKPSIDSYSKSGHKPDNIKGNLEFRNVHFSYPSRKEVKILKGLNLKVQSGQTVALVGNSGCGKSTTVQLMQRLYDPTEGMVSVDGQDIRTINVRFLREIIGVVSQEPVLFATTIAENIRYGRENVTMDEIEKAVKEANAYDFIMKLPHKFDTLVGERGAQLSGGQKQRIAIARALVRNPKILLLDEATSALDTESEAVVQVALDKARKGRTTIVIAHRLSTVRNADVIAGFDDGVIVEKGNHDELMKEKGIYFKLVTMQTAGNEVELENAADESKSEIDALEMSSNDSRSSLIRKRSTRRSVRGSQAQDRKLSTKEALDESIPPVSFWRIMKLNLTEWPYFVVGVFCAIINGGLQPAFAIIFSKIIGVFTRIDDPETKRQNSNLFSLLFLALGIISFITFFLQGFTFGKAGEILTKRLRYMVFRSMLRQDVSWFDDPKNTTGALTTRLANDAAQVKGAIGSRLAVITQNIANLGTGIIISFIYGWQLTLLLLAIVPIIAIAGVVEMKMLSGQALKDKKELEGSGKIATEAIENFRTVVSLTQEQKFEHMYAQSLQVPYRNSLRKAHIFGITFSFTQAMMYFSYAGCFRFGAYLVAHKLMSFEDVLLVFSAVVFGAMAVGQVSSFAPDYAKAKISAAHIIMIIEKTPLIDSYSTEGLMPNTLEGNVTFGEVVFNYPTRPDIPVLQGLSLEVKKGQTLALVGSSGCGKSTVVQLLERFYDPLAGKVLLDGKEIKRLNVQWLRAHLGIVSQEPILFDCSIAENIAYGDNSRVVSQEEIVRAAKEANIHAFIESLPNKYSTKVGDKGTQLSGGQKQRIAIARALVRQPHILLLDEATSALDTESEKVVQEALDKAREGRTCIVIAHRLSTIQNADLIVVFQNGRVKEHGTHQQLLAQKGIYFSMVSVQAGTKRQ
# Sequence of glycogen synthase kinase-3β (GSK-3β) (P49841 whole entry, species assumed): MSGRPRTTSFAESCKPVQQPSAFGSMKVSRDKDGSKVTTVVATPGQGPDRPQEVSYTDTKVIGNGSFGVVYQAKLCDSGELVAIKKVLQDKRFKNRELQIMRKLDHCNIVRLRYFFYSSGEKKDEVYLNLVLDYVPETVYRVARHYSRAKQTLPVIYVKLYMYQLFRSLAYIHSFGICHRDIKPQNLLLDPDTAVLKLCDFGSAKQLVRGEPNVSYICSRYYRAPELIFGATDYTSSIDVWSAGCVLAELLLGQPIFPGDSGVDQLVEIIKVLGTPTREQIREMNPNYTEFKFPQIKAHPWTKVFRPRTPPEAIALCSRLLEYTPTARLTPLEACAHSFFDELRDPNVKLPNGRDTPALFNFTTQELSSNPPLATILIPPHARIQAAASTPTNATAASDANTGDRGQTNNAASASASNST
compound,measurement,setting,value
"CN1C(=O)/C(=C2/C(=O)Nc3ccccc32)c2ccccc21 [Meisoindigo, meisoindigo]",concentration of inhibition of GSK-3β,[1],5 to 50 nM
"C(=NNC1=NCCN1)c1c2ccccc2c(C=NNC2=NCCN2)c2ccccc12 [bisantrene, 9,10-anthracenedicarboxaldehyde bis[(4,5-dihydro-1H-imidazol-2-yl)hydrazine]dihydrochloride]",time after treatment for which cytostatic macrophages could be isolated from peritoneal exudate,macrophages; cytostatic in cultures of P815 (mastocytoma) tumor cells,4 weeks
same,minimal effective in vivo dose,macrophages; macrophage activation,~25 mg/kg
same,affinity constants,double-stranded DNA,above 10^6 M^−1
same,activity in murine tumor models,[2]; P-388 leukemia and B-16 melanoma,antitumor activity
same,activity in cancer models,"[2]; intravenously (i.v.), intraperitoneally (i.p.), or subcutaneously (s.c.)",effective
same,activity in cancer models,[2]; orally,inactive
same,sensitivity in in vitro colony-forming assays,"Human tumor cells; breast, ovarian, renal, small cell and non-small cell lung cancer, lymphoma, acute myelogenous leukemia, melanoma, gastric, adrenal, head and neck cancer",sensitive
same,Activity in clonogenic assays from 684 patients,Human tumor cells; colorectal cancer,not in colorectal cancer
same,cross resistance,Human tumor cells; with Adriamycin and mitoxantrone,lack of cross resistance
same,activity in Phase II clinical trials,metastatic breast cancer,active
same,activity,human colon cancer,inactive
same,activity,[3],inactive
same,DNA strand breaks,"L1210 leukemia cells; L1210 leukemia cells, typical of inhibition of DNA topoisomerase II",induce protein-associated DNA strand breaks
same,DNA supercoiling,L1210 leukemia cells; indicative of DNA intercalation,induce altered DNA supercoiling
same,cardiotoxicity,animals,not cardiotoxic
same,toxicity compared with doxorubicin,cardiotoxicity context,less than that of the anthracycline doxorubicin
same,toxicities observed,"dogs and monkeys, high doses","leukopenia, anorexia, diarrhea, injection site necrosis, enterocolitis, muscle degeneration, and pulmonary edema"
same,effect on platelet aggregation,Human Platelets,inhibit platelet aggregation
same,administered dose excreted unchanged in the urine,[4]; in 24 hr,11.3%
same,plasma clearance,[4]; [18],735 mL/min/m^2
same,steady state volume of distribution (Vdss),[4]; [18],1845 L/m^2
same,administered dose found in the urine,[5],3.4±1.1%
same,t½ α,[6]; another single dose study,3 min
same,t½ β,[6]; another single dose study,1 h
same,t½ γ,[6]; another single dose study,8 h
same,t½ α,[6]; first single dose study,3.44 min
same,t½ β,[6]; first single dose study,1.33 h
same,t½ γ,[6]; first single dose study,26.13 h
same,volume of distribution,[7],687 L/m^2
same,plasma clearance,[8],1306±179 mL/min/m^2
same,plasma concentration,[8]; dose of 56 mg/m^2,12 ± 6 ng/mL
same,plasma concentration,[8]; dose of 260 mg/m^2,55 ± 8 ng/mL
same,urinary excretion of the dose,[8]; in 24 hr,4.6%
same,dose excreted in the urine,[9],7.1%
same,t½ α,[9],0.9 h
same,t½ β,[9],9.7 h
same,dose excreted in the urine,[10]; in vivo,Less than 7%
same,route by which the majority of the drug is eliminated,[10]; in vivo,hepatobiliary route
same,area under the plasma concentration×time curve,[10]; intravenous dose of 260 mg/m^2,4400 µg·h/mL
same,area under the plasma concentration×time curve,[10]; intravenous dose of 340 mg/m^2,5700 µg·h/mL
same,beta phase,[10]; three phases of elimination,approximately 1.5 hours
same,initial distributive phase,[10]; three phases of elimination,6 min
same,bound to plasma proteins,plasma proteins,More than 95%
same,Maximally tolerated dose,"[11]; daily×5, repeat every 4 week (Spiegel et al. 1982)",80 mg/m^2
same,antitumor activity in phase I clinical trials,"[11]; hepatocellular cancer and hypernephroma (one patient each), lymphoma, myeloma, melanoma, renal cancer, tumors of the bladder and lung",showed activity
same,Thrombocytopenia,"[11]; human, in vivo",mild
same,major dose-limiting toxic effect,"[11]; human, in vivo",leukopenia
same,Maximally tolerated dose,[11]; monthly (every 3-4 week) (Von Hoff et al. 1981b),260 mg/m^2
same,Maximally tolerated dose,"[11]; monthly, patients with poor bone marrow reserve (Von Hoff et al. 1981b)",240 mg/mg^2
same,dose limiting toxicity (DLT),[11]; phase I doses between 190-430 mg/m^2 q3w,neutropenia
same,doses requiring a central line due to phlebitis,"[11]; phase I study, 72 h",over 156 mg/m^2
same,MTD,"[11]; phase I study, over 72 h",300 mg/m^2
same,nadir for myelosuppression,[11]; schedule of every 3 to 4 weeks,9 days
same,recovery from myelosuppression,[11]; schedule of every 3 to 4 weeks,≤ 19 days
same,Maximally tolerated dose,[11]; weekly×3 (Alberts et al. 1982),200 mg/m^2
same,Maximally tolerated dose,"[11]; weekly×3, patients with poor bone marrow reserve (Alberts et al. 1982)",150 mg/mg^2
same,Maximally tolerated dose,"[11]; weekly×3, repeat every 4-5 week (Yap et al. 1982)",150 mg/m^2
same,patients reporting malaise,[12]; Yap et al. 1982,up to one-half of patients
same,patients who experienced anaphylactoid reactions,[12]; following a bisantrene infusion,Up to 10%
same,nausea or vomiting,"[12]; human, in vivo",very little nausea or vomiting
same,radioangiocardiographic monitoring of cardiac function,[12]; patients receiving the drug,no decrease in ejection fraction
same,cardiotoxicity compared with other agents,[12]; phase III trial,less cardiotoxic than mitoxantrone or doxorubicin
same,Alopecia (hair loss) compared with doxorubicin,[12]; randomized trial in advanced breast cancer,less intense
same,aqueous solubility,[13],lack of aqueous solubility
same,metabolism in vitro,[14],substrate for hepatic microsomal enzymes
same,Brain levels,[15],extremely low
same,tissues with the highest concentration (in descending order),[15],"kidney, liver, gallbladder, spleen, lung, and heart"
same,interaction with P-glycoprotein,P-glycoprotein,substrate for P-glycoprotein
O=C([O-])O.[Na+] [sodium bicarbonate],extravasation necrosis,[16],blocked
C(=N\NC1=NCCN1)/c1cccc2cc3c(/C=N/NC4=NCCN4)cccc3cc12 [Formula (III)],effect at the telomerase level,telomerase,suppressing its catalytic activity
same,apoptosis,[17],absence of apoptosis
same,cell cycle impairment,[17],G2M phase arrest
same,DNA damage response,"[17]; telomerase-expressing cells and ALT-positive cell lines, partially co-localize at the telomere",formation of γH2AX foci
